16 compounds from US11292801B2, “Calpain modulators and therapeutic uses thereof” (Blade Therapeutics, Inc., priority 2016, dated 2022) can be followed below.

One assay addresses T1, Human Calpain 9/NS1 (Homo sapiens, UniProt O14815).
T1 sequence (O14815 1-690): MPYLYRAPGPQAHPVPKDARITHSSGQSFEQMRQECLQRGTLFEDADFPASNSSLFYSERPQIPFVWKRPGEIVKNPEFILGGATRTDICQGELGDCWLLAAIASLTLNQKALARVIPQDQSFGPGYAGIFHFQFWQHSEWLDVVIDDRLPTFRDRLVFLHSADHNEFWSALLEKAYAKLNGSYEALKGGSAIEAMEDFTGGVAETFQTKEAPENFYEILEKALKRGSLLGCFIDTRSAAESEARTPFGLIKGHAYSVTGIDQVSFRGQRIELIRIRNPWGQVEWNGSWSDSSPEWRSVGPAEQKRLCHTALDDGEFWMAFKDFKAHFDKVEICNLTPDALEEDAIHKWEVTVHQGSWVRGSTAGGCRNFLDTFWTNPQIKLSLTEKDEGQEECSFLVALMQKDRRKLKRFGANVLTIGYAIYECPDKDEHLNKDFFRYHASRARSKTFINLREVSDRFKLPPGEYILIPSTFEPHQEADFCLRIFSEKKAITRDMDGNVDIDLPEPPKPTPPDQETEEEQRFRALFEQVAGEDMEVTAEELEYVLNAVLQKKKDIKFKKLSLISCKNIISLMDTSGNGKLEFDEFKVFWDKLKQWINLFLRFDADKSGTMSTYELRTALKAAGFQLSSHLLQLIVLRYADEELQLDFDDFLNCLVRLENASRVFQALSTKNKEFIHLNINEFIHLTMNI
T1 sequence (P04632 1-268 partner): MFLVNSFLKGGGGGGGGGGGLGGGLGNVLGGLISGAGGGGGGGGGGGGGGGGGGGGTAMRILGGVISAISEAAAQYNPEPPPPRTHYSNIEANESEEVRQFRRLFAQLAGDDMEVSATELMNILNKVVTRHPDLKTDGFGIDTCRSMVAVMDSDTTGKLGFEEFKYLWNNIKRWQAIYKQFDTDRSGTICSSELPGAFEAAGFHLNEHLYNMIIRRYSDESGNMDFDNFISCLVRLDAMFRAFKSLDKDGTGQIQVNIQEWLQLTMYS
Kind of assay: Biochemical inhibition of calpain 9, continuous fluorescence (FRET substrate) assay. The settings on record: mean, read-out: Human Calpain 9/NS1 IC50 (nM)_MEAN. In short, it runs like this: (§1)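 Continuous FRET assay with 5-FAM/QXL520 peptide substrate in 50 mM Tris pH ~7.5, 100 mM NaCl, 1 mM DTT. Enzyme preincubated with inhibitor at 25C; reaction started with substrate plus CaCl2, read at 490/520 nm for 10 min. Rates from slopes over 1-5 min, IC50 from 4-parameter logistic fit.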

Another assay has as its target T2, Human Calpain 2/NS1 (Homo sapiens, UniProt P17655).
T2 sequence (P17655 1-700): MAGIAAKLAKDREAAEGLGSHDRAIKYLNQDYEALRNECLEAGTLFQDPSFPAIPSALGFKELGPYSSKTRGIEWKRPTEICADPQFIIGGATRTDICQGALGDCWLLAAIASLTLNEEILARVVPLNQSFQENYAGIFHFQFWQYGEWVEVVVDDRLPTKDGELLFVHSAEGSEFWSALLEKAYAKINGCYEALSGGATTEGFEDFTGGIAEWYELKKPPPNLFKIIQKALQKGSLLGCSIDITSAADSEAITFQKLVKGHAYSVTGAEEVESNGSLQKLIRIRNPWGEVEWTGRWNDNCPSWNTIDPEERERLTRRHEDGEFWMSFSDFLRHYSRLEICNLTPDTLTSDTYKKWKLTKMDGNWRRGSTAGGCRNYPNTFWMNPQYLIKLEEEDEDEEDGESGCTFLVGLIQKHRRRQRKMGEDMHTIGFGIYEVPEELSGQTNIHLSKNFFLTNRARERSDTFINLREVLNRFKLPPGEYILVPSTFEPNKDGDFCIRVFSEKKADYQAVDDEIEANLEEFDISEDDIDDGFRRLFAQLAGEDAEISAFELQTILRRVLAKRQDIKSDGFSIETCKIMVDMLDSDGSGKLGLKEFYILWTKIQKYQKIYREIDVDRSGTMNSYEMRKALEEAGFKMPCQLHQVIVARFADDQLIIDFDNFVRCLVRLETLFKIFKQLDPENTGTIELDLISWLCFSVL
T2 sequence (P04632 1-268 partner): T1 sequence (P04632 1-268 partner)
The experiment in a line: Biochemical inhibition of calpain 2, continuous fluorescence (FRET substrate) assay. The settings on record: mean, read-out: Human Calpain 2/NS1 IC50 (nM)_MEAN. The gist of the method: as §1

Another assay addresses T3, Human Calpain 1/NS1 (Homo sapiens, UniProt P07384).
T3 sequence (P07384 1-714): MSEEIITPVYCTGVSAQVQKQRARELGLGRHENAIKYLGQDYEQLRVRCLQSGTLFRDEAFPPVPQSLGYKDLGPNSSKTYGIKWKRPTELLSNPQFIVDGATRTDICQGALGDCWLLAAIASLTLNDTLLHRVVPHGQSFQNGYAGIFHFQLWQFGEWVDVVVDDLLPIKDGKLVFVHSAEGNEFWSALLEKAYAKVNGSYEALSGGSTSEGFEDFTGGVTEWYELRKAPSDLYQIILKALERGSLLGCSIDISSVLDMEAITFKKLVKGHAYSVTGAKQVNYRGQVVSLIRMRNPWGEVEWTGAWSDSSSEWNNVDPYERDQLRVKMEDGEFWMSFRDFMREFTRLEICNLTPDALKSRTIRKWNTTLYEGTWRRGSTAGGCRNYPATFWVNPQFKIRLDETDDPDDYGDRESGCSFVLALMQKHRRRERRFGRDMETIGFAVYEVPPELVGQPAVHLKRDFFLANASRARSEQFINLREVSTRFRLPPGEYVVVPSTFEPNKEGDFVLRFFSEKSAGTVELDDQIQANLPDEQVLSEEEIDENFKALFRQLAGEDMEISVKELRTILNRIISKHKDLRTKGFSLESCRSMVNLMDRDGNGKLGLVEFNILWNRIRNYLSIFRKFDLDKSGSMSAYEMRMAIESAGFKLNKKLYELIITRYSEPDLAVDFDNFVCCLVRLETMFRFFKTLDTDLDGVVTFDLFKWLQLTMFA
T3 sequence (P04632 1-268 partner): T1 sequence (P04632 1-268 partner)
The experiment in a line: Biochemical inhibition of calpain 1, continuous fluorescence (FRET substrate) assay. The settings on record: mean, read-out: Human Calpain 1/NS1 IC50 (nM)_MEAN. In short, it runs like this:
as §1

Molecules are shown by their SMILES.

In the case of `CN1CCN(CCCNC(=O)C(=O)C2CCCCOCCOCc3ccccc3C(=O)N2)CC1` (stereo not drawn) [Compound 105, N-(3-(4-methylpiperazin-1-yl)propyl)-2-oxo-2-(12-oxo-1,3,4,6,7,8,9,10,11,12-decahydrobenzo[f][1,4]dioxa[9]azacyclotetradecin-10-yl)acetamide], the IC50 on Human Calpain 9/NS1 is below 3000 nM; at Human Calpain 2/NS1, above 10000 nM; on Human Calpain 1/NS1, above 10000 nM.
With `O=C[C@@H]1Cc2ccc(cc2)OCC=CCOc2ccc3nn(cc3c2)-c2ncccc2C(=O)N1` [Compound 71, (1^3Z,1^4E,5S)-3-oxo-1^2H-8,13-dioxa-4-aza-1(2,5)-indazola-2(2,3)-pyridina-7(1,4)-benzenacyclotridecaphan-10-ene-5-carbaldehyde], the IC50 on Human Calpain 9/NS1, at Human Calpain 2/NS1 and at Human Calpain 1/NS1 was below 3000 nM in each case.
Consider `O=C[C@@H]1Cc2ccc(cc2)CCCCc2cccc(c2)-c2ccn(n2)-c2ncccc2C(=O)N1` [Compound 73, (10S,E)-12-oxo-2^1H-11-aza-1(2,3)-pyridina-2(1,3)-pyrazola-3(1,3),8(1,4)-dibenzenacyclododecaphane-10-carbaldehyde], for which the IC50 on Human Calpain 9/NS1, at Human Calpain 2/NS1 and on Human Calpain 1/NS1 was below 3000 nM each time.
For `O=C(NCc1ccc(F)cc1)C(=O)C1CCCCOCCOCc2ccccc2C(=O)N1` (stereo not drawn) [Compound 98, N-(4-fluorobenzyl)-2-oxo-2-(12-oxo-1,3,4,6,7,8,9,10,11,12-decahydrobenzo[f][1,4]dioxa[9]azacyclotetradecin-10-yl)acetamide], the results for the IC50 on Human Calpain 9/NS1, at Human Calpain 2/NS1 and on Human Calpain 1/NS1 were below 3000 nM, below 3000 nM and above 10000 nM, respectively.
On to `Cc1cccc(Cl)c1CNC(=O)C(=O)C1CCCCOCCOCc2ccccc2C(=O)N1` (stereo not drawn) [Compound 86, N-(2-chloro-6-methylbenzyl)-2-oxo-2-(12-oxo-1,3,4,6,7,8,9,10,11,12-decahydrobenzo[f][1,4]dioxa[9]azacyclotetradecin-10-yl)acetamide], for which the IC50 on Human Calpain 9/NS1, at Human Calpain 2/NS1 and at Human Calpain 1/NS1 was above 10000 nM in each case.
Consider `CCOC(=O)CCNC(=O)C(=O)[C@@H]1CCCCOCCOCc2ccccc2C(=O)N1` [Compound 55, Ethyl (S)-3-(2-oxo-2-(12-oxo-1,3,4,6,7,8,9,10,11,12-decahydrobenzo[f][1,4]dioxa[9]azacyclotetradecin-10-yl)acetamido)propanoate], for which the IC50 was 3000 to 10000 nM on Human Calpain 9/NS1, 3000 to 10000 nM on Human Calpain 2/NS1 and above 10000 nM on Human Calpain 1/NS1.
With `NC(=O)C(=O)[C@@H]1CCCCCCOc2ccnc(c2)-c2ccccc2C(=O)N1` [Compound 132, (S)-2-oxo-2-(3-oxo-12-oxa-4-aza-1(2,4)-pyridina-2(1,2)-benzenacyclododecaphane-5-yl)acetamide], the IC50 on Human Calpain 9/NS1, on Human Calpain 2/NS1 and at Human Calpain 1/NS1 was below 3000 nM in each case.
`O=C[C@@H]1CC=CCOCCCCOCc2ccccc2C(=O)N1` [Compound 12, (S)-14-Oxo-1,3,4,5,6,8,11,12,13,14-decahydrobenzo[h][1,6]dioxa[11]aza-cyclohexadecine-12-carbaldehyde]: the IC50 at Human Calpain 9/NS1 was 3000 to 10000 nM; at Human Calpain 2/NS1, below 3000 nM; at Human Calpain 1/NS1 it was below 3000 nM.
Regarding `O=C[C@@H]1Cc2ccc(cc2)OC/C=C/COc2cccc(c2)-c2ccn(n2)-c2ncccc2C(=O)N1` [Compound 44, (2^2E,6S,11E)-4-oxo-2^1H-9,14-dioxa-5-aza-3(2,3)-pyridina-2(3,1)-pyrazola-1(1,3),8(1,4)-dibenzenacyclotetradecaphan-11-ene-6-carbaldehyde], the IC50 on Human Calpain 9/NS1, on Human Calpain 2/NS1 and on Human Calpain 1/NS1 was below 3000 nM in each case.
Take `O=C[C@@H]1Cc2cccc(c2)CCCOCc2ccccc2C(=O)N1` [Compound 32, (S)-2-Oxo-10-oxa-3-aza-1(1,2),6(1,3)-dibenzena-cycloundecaphane-4-carbaldehyde]: the IC50 at Human Calpain 9/NS1, on Human Calpain 2/NS1 and on Human Calpain 1/NS1 was below 3000 nM throughout.
Consider `Cc1cccc(C)c1NC(=O)C(=O)[C@@H]1C/C=C\COCCOCc2ccccc2C(=O)N1` [Compound 61, (S,Z)—N-(2,6-dimethylphenyl)-2-oxo-2-(12-oxo-1,3,4,6,9,10,11,12-octahydrobenzo[f][1,4]dioxa[9]azacyclotetradecin-10-yl)acetamide], for which the IC50 at Human Calpain 9/NS1, at Human Calpain 2/NS1 and on Human Calpain 1/NS1 was above 10000 nM throughout.
As to `O=C(NC1CC1)C(=O)C1CCCCOCCOCc2ccccc2C(=O)N1` (stereo not drawn) [Compound 114, N-cyclopropyl-2-oxo-2-(12-oxo-1,3,4,6,7,8,9,10,11,12-decahydrobenzo[f][1,4]dioxa[9]azacyclotetradecin-10-yl)acetamide], the IC50 on Human Calpain 9/NS1, on Human Calpain 2/NS1 and on Human Calpain 1/NS1 was above 10000 nM in each case.
As to `O=C[C@@H]1CC=CCOCCCOCc2ccccc2C(=O)N1` [Compound 11, (S)-13-Oxo-1,4,5,7,10,11,12,13-octahydro-3h-benzo[g][1,5]dioxa[10]aza-cyclopentadecine-11-carbaldehyde], the IC50 at Human Calpain 9/NS1 is below 3000 nM; on Human Calpain 2/NS1 it was below 3000 nM; on Human Calpain 1/NS1, 3000 to 10000 nM.
Take `O=C[C@@H]1CCCCOCCOc2ccccc2C(=O)N1` [Compound 19, (S)-11-Oxo-2,3,6,7,8,9,10,11-octahydro-5h-benzo[e][1,4]dioxa[8]azacyclotridecine-9-carbaldehyde]: the IC50 at Human Calpain 9/NS1 is 3000 to 10000 nM; on Human Calpain 2/NS1, 3000 to 10000 nM; on Human Calpain 1/NS1, above 10000 nM.
Turning to `O=C[C@@H]1C/C=C/CCCCCc2cccnc2C(=O)N1` [Compound 48, (S,E)-15-Oxo-6,7,8,9,12,13,14,15-octahydro-5h-pyrido[2,3-c][1]aza-cyclotridecine-13-carbaldehyde], the IC50 on Human Calpain 9/NS1 is below 3000 nM; on Human Calpain 2/NS1 it was 3000 to 10000 nM; on Human Calpain 1/NS1, above 10000 nM.
In the case of `O=C[C@@H]1CC=CCCOc2cccc(c2)-c2ncccc2C(=O)N1` [Compound 37, (S)-11-Oxo-3-oxa-10-aza-1(2,3)-pyridina-2(1,3)-benzenacycloundecaphan-6-ene-9-carbaldehyde], the IC50 at Human Calpain 9/NS1, at Human Calpain 2/NS1 and on Human Calpain 1/NS1 was below 3000 nM each time.
